Test results: ChEMBL document CHEMBL5352478, “Novel pyridine-containing histone deacetylase inhibitors strongly arrest proliferation, induce apoptosis and modulate miRNAs in cancer cells” (Eur J Med Chem, 2023)

What was measured:
[1] = system: OCI-AML-3; experiment: Antiproliferative activity against human OCI-AML-3 cells incubated for 48 hrs; assay type: functional, cell-based; details: OCI-AML-3, 48 h
[2] = Antiproliferative activity against human IMS-M2 cells incubated for 48 hrs; assay type: functional, cell-based; details: IMS-M2, 48 h
[3] = system: HCT-116; experiment: cells; assay type: functional, cell-based; details: Homo sapiens, HCT-116, 72 h
[4] = system: U-937; experiment: Induction of cell cycle arrest in human U-937 cells assessed as accumulation of cells in pre-G1 phase at 5 uM for 24 hrs by PI staining based flow cytometric analysis; assay type: functional
[5] = system: A549; experiment: cells; assay type: functional, cell-based; details: Homo sapiens, A549, 72 h
[6] = biological target: Histone deacetylase 1 (Homo sapiens, UniProt Q13547)
Chain of Histone deacetylase 1 (Q13547 whole entry): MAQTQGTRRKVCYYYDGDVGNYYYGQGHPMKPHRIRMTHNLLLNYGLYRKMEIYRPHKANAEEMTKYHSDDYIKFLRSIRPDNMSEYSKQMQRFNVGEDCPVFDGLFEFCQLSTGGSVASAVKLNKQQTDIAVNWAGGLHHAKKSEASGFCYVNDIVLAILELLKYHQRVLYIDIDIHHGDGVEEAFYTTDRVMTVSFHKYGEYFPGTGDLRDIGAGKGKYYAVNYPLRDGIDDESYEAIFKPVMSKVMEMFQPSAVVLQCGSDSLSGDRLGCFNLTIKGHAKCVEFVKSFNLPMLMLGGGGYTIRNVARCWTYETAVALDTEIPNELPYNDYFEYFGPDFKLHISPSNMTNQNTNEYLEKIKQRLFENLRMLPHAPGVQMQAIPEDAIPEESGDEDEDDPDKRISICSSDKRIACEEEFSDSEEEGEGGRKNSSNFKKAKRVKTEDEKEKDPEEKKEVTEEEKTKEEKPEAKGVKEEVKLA

[7] = biological target: T1, Histone deacetylase 7 (Homo sapiens, UniProt Q8WUI4)
T1 sequence (Q8WUI4 whole entry): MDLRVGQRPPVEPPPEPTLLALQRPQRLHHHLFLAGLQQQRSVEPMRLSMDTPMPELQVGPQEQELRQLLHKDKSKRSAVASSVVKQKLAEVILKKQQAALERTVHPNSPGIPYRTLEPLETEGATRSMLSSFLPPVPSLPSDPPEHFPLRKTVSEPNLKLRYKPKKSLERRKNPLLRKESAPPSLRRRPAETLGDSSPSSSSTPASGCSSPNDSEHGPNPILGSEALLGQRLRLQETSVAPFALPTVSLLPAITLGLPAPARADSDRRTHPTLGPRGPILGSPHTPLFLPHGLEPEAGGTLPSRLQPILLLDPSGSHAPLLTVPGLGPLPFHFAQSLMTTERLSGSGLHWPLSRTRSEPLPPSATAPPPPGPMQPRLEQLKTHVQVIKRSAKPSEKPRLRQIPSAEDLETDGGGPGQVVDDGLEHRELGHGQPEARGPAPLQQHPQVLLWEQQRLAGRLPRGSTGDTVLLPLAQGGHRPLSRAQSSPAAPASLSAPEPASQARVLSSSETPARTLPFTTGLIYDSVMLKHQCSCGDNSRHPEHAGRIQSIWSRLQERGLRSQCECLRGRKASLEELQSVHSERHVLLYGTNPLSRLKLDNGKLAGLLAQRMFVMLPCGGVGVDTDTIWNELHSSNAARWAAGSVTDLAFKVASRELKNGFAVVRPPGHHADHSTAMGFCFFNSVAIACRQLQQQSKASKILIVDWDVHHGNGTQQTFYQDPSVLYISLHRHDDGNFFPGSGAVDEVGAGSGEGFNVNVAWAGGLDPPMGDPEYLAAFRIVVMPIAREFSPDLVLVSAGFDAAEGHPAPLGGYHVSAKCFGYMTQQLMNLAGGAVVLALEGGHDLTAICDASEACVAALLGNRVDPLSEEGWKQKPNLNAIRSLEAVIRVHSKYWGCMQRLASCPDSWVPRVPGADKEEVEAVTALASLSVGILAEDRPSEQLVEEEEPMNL

[8] = biological target: T2, Histone deacetylase 11 (Homo sapiens, UniProt Q96DB2)
T2 sequence (Q96DB2 whole entry): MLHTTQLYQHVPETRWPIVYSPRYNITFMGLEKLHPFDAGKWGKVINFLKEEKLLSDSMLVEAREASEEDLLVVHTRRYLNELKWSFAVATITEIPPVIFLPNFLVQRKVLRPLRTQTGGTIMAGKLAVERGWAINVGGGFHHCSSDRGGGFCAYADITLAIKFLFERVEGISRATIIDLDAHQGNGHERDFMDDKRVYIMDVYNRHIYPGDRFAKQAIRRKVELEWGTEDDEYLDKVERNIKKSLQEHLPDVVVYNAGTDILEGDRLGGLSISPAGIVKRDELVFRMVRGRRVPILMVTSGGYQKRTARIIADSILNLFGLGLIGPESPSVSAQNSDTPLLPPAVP

[9] = system: K562; experiment: Potency index, ratio of SAHA IC50 to test compound IC50 for antiproliferative activity against human K562 cell; assay type: functional
[10] = system: NB-4; experiment: Antiproliferative activity against human NB4 cells incubated for 48 hrs; assay type: functional, cell-based; details: NB-4, 48 h
[11] = system: MV4-11; experiment: Antiproliferative activity against human MV4-11 cells incubated for 48 hrs; assay type: functional, cell-based; details: MV4-11, 48 h
[12] = system: U-937; experiment: Antiproliferative activity against human U-937 cells incubated for 48 hrs; assay type: functional, cell-based; details: U-937, 48 h
[13] = biological target: T3, Polyamine deacetylase HDAC10 (Homo sapiens, UniProt Q969S8)
T3 sequence (Q969S8 whole entry): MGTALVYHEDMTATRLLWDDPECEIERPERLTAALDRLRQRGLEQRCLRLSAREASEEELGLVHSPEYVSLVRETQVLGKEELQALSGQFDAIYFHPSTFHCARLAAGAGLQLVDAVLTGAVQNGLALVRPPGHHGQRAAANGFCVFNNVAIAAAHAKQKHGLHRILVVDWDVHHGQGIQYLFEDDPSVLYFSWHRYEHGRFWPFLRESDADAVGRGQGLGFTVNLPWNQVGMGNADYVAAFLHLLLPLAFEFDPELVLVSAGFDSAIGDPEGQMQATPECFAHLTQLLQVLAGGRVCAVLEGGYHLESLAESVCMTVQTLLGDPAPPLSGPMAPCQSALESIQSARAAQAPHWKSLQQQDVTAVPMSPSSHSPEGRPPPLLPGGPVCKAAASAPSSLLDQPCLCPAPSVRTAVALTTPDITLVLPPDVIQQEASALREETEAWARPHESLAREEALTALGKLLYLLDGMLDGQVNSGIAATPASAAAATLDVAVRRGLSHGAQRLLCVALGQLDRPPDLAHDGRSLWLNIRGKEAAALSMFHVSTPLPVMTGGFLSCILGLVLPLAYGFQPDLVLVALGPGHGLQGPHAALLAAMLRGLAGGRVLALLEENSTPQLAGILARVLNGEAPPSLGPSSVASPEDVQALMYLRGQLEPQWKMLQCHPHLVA

[14] = biological target: Histone deacetylase 3 (Homo sapiens, UniProt O15379)
Chain of Histone deacetylase 3 (O15379 whole entry): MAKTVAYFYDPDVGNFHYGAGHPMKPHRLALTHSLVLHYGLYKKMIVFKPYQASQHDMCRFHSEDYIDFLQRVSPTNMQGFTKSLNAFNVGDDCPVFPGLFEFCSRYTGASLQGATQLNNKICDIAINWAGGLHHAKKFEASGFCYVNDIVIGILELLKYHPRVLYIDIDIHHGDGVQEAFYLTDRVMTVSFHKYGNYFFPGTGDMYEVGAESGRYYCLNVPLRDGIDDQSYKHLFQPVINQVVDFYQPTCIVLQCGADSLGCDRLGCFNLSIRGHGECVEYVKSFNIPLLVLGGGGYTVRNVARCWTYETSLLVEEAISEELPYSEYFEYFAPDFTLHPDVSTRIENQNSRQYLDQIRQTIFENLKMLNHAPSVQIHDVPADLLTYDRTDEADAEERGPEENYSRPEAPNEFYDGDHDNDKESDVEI

[15] = biological target: T4, Histone deacetylase 8 (Homo sapiens, UniProt Q9BY41)
T4 sequence (Q9BY41 whole entry): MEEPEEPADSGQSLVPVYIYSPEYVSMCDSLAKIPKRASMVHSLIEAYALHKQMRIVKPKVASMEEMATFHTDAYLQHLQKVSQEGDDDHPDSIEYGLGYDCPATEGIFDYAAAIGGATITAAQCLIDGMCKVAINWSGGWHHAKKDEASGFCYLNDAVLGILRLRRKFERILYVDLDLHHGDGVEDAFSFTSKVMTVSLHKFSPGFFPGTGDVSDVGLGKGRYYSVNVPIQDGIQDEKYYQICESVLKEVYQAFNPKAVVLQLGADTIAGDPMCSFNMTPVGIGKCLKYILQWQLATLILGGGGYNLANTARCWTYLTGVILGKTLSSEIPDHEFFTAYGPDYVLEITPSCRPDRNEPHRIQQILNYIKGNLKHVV

[16] = biological target: Histone deacetylase 5 (Homo sapiens, UniProt Q9UQL6); details: read-out: IC50
Chain of Histone deacetylase 5 (Q9UQL6 whole entry): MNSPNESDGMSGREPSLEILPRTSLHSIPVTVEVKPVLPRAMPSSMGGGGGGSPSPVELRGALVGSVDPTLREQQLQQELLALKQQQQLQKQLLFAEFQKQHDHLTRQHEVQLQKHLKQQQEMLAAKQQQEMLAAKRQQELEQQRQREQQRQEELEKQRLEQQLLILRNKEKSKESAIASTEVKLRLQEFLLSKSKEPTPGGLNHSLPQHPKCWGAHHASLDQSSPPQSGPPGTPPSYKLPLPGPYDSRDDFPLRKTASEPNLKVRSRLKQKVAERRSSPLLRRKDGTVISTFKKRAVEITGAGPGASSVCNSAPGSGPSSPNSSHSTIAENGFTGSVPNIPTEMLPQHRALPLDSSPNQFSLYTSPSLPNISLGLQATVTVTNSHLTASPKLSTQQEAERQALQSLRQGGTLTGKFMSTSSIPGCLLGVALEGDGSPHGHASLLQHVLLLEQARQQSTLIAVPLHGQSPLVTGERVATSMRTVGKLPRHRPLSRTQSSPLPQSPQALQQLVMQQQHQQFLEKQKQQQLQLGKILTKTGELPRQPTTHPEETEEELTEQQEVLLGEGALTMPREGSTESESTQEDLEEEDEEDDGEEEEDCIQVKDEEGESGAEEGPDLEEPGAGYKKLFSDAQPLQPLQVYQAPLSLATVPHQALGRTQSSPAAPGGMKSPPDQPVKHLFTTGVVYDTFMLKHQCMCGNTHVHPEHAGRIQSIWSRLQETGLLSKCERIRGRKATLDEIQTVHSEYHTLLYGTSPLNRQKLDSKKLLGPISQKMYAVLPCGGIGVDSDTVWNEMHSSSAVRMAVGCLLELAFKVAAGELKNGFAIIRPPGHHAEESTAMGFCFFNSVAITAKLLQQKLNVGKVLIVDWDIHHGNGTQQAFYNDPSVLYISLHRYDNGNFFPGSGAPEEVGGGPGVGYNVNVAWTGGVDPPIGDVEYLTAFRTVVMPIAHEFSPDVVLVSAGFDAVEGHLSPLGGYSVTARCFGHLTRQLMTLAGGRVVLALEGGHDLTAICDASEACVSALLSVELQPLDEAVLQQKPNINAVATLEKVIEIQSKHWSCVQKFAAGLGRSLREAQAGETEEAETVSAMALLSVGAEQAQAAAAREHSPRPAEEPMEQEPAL

[17] = system: OCI-AML2; experiment: Antiproliferative activity against human OCI-AML2 cells incubated for 48 hrs; assay type: functional, cell-based; details: OCI-AML2, 48 h
[18] = system: Kasumi 1; experiment: Antiproliferative activity against human Kasumi 1 cells incubated for 48 hrs; assay type: functional, cell-based; details: Kasumi 1, 48 h
[19] = system: U-937; experiment: Induction of cell cycle arrest in human U-937 cells assessed as accumulation of cells in pre-G1 phase at 1 uM for 48 hrs by PI staining based flow cytometric analysis; assay type: functional
[20] = biological target: Histone deacetylase 2 (Homo sapiens, UniProt Q92769)
Chain of Histone deacetylase 2 (Q92769 whole entry): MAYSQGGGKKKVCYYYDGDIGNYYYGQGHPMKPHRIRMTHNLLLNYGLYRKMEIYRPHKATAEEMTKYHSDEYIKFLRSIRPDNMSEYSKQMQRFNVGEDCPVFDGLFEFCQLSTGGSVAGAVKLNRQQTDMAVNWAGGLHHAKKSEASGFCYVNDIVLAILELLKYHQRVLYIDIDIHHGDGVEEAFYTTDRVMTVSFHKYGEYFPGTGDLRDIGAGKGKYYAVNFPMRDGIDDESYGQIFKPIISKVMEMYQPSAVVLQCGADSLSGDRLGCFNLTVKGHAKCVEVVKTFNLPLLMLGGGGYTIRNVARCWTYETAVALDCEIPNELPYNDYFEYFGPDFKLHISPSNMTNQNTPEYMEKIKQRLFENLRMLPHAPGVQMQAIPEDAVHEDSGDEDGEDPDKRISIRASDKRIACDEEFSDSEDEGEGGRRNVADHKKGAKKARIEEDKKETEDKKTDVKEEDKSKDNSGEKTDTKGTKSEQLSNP

[21] = system: U-937; experiment: Induction of cell cycle arrest in human U-937 cells assessed as accumulation of cells in G1 phase at 1 to 5 uM for 48 hrs by PI staining based flow cytometric analysis; assay type: functional; details: dose 1-5 µM
[22] = system: K562; experiment: cells; assay type: functional, cell-based; details: Homo sapiens, K562, 72 h
[23] = system: KARPAS-299; experiment: Antiproliferative activity against human KARPAS-299 cells incubated for 48 hrs; assay type: functional, cell-based; details: KARPAS-299, 48 h
[24] = biological target: Histone deacetylase 9 (Homo sapiens, UniProt Q9UKV0)
Chain of Histone deacetylase 9 (Q9UKV0 whole entry): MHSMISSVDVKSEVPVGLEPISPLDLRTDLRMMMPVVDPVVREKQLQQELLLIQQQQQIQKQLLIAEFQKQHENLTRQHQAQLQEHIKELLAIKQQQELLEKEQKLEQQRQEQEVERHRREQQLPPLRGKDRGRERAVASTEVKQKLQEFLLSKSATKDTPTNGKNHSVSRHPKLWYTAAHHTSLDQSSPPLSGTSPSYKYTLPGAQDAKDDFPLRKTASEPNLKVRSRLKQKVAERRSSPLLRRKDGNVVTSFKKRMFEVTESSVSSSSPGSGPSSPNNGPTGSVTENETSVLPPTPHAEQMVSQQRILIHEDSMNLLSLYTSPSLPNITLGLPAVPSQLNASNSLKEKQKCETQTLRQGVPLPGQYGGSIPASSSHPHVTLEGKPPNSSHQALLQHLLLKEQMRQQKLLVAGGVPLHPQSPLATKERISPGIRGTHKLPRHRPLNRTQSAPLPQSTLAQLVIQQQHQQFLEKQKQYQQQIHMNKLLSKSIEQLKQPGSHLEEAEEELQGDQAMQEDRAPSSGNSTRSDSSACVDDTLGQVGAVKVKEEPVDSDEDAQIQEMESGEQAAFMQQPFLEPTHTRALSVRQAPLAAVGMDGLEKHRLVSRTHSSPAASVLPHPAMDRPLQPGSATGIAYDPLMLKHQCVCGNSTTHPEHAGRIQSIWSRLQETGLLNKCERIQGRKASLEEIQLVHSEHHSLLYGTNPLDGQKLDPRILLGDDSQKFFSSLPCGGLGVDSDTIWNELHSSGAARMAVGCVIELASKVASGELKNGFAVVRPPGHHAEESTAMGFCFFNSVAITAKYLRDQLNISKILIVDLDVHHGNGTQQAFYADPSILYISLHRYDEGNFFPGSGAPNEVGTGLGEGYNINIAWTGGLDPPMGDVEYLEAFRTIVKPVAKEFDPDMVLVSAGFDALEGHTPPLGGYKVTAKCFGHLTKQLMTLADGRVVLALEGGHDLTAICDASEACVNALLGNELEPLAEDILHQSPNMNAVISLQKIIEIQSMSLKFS

[25] = system: HL-60; experiment: Antiproliferative activity against human HL-60 cells incubated for 48 hrs; assay type: functional, cell-based; details: HL-60, 48 h
[26] = system: U-937; experiment: Induction of cell cycle arrest in human U-937 cells assessed as accumulation of cells in G2/M phase at 1 uM for 24 hrs by PI staining based flow cytometric analysis; assay type: functional
[27] = system: U-937; experiment: Induction of cell cycle arrest in human U-937 cells assessed as cell death at 5 uM for 48 hrs by PI staining based flow cytometric analysis; assay type: functional
[28] = system: U-937; experiment: Induction of cell cycle arrest in human U-937 cells assessed as accumulation of cells in pre-G1 phase at 5 uM for 48 hrs by PI staining based flow cytometric analysis; assay type: functional
[29] = biological target: T5, Protein deacetylase HDAC6 (Homo sapiens, UniProt Q9UBN7); details: read-out: IC50
T5 sequence (Q9UBN7 whole entry): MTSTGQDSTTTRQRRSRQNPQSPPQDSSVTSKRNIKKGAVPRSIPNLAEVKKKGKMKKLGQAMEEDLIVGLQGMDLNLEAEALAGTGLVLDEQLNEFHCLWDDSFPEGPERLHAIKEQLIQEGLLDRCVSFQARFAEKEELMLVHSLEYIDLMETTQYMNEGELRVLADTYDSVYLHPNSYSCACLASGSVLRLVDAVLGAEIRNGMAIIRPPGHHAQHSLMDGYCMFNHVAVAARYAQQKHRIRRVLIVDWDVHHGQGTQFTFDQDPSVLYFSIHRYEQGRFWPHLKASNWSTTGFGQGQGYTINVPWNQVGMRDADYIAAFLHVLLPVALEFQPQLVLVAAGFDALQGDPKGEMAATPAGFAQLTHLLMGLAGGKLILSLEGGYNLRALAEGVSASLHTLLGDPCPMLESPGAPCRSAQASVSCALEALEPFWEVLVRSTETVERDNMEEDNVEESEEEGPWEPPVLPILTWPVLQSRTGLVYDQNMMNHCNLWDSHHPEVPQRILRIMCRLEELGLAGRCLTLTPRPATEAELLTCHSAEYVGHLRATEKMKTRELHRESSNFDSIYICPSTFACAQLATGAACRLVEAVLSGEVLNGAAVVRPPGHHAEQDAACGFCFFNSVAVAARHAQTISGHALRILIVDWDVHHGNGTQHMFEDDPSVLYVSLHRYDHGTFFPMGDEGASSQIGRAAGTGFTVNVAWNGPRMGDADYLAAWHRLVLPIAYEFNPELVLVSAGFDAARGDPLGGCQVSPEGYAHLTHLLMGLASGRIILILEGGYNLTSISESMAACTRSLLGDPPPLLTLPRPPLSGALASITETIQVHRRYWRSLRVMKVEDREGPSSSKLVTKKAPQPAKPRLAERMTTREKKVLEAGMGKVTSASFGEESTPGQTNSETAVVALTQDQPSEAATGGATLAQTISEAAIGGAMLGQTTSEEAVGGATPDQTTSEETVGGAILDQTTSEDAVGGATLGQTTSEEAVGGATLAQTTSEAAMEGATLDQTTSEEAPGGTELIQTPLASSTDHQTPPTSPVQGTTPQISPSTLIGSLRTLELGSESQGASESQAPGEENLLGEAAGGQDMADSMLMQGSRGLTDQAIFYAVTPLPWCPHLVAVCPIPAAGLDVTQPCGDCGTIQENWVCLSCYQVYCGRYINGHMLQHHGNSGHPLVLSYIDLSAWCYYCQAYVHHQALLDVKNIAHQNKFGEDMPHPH

Work on `O=C(/C=C/c1ccc(NC(=O)Cc2cccc3ccccc23)cn1)NO` yielded an IC50 [1] of 529 nM, an IC50 [2] of 198 nM and an IC50 [3] of 70 nM. It also gave an Activity [4] of 10%, an IC50 [5] of 320 nM and an IC50 [6] of 98 nM. For the same compound, the IC50 [7] was 2060 nM, the IC50 [8] was 3980 nM and the “Ratio IC50” value [9] was 10. It also gave an IC50 [10] of 84 nM, an IC50 [11] of 59 nM and an IC50 [12] of 258 nM. It also gave an IC50 [13] of 71 nM, an IC50 [14] of 39 nM and an IC50 [15] of 47 nM. It also gave an IC50 [16] of 1350 nM, an IC50 [17] of 379 nM and an IC50 [18] of 66 nM. For the same compound, the Activity [19] was 40%, the IC50 [20] was 156 nM and the Activity [21] was 70%. The IC50 [22] was 50 nM, the IC50 [23] was 400 nM and the IC50 [24] was 2790 nM. For the same compound, the IC50 [25] was 276 nM.
Compound `O=C(/C=C/c1ccc(NC(=O)C(Cc2ccccc2)c2ccccc2)cn1)NO` (stereo unspecified) has an IC50 [3] of 70 nM, an Activity [4] of 10% and an IC50 [5] of 220 nM. The “Ratio IC50” value [9] was 10, the Activity [26] was 60% and the Activity [27] was 76%. It also gave an Activity [19] of 40%, an Activity [28] of 40% and an Activity [21] of 70%. It also gave an IC50 [22] of 40 nM and an IC50 [29] of 11 nM.
